Drawing on ChEMBL document CHEMBL1157694, “Synthesis of a new cytotoxic cephalostatin/ritterazine analogue from hecogenin and 22-epi-hippuristanol” (2010), this text covers GI50 for 3 molecules.

Usually GI50 stands for the concentration giving 50% growth inhibition. High values mean lower sensitivity of the cells, low ones greater sensitivity of the cells.

What all share (format): functional
One test concerns A549. As to the kind of experiment: Growth inhibition of human A549 cells after 72 hrs by sulforhodamine B assay. The following applies: A549, 72 h. A general note: In SRB staining, fixed cells bind dye roughly in proportion to their protein.
A further test has as its system MDA-MB-231. As to the kind of experiment: Growth inhibition of human MDA-MB-231 cells after 72 hrs by sulforhodamine B assay. The following applies: MDA-MB-231, 72 h.
A further test relates to HT-29. Nature of the test: Growth inhibition of human HT-29 cells after 72 hrs by sulforhodamine B assay. The following applies: HT-29, 72 h.

Molecules are shown by their SMILES.

In the case of `C[C@H]1CC[C@@]2(OC1)O[C@H]1C[C@H]3[C@@H]4CC[C@H]5Cc6nc7c(nc6C[C@]5(C)[C@H]4CC(=O)[C@]3(C)[C@H]1[C@@H]2C)C[C@@H]1CC[C@H]2[C@@H]3C[C@@H]4O[C@]5(C[C@H](C)C(C)(C)O5)[C@](C)(O)[C@@H]4[C@@]3(C)CC(=O)[C@@H]2[C@@]1(C)C7`, the concentration for 50% growth inhibition (GI50) with A549 was found to be 1600 nM; in the test with MDA-MB-231, 2000 nM; with HT-29 it was 1600 nM.

Take `C[C@H]1CC[C@@]2(OC1)O[C@H]1C[C@H]3[C@@H]4CC[C@H]5Cc6nc7c(nc6C[C@]5(C)[C@H]4CC(=O)[C@]3(C)[C@H]1[C@@H]2C)C[C@@H]1CC[C@@H]2[C@H](CC(=O)[C@]3(C)[C@@H]4[C@H](C[C@@H]23)O[C@]2(CC[C@H](C)CO2)[C@H]4C)[C@@]1(C)C7`: the GI50 in the test on A549 was 1700 nM; in the test with MDA-MB-231, 2600 nM; in the test on HT-29 it was 2100 nM.

Take `C[C@H]1C[C@]2(O[C@H]3C[C@H]4[C@@H]5CC[C@H]6C[C@H](O)CC[C@]6(C)[C@H]5[C@@H](O)C[C@]4(C)[C@H]3[C@@]2(C)O)OC1(C)C` [EPIHIPPURISTANOL]: the GI50 was determined as 3200 nM in the test with A549, 5600 nM with MDA-MB-231 and 4500 nM in the test on HT-29.
